# Test system: M. tuberculosis H37 Rv (ATCC 27294)
# Test: MIC determination in medium 7H9 by Alamar Blue (MABA) method and FIC synergism, standard strain H37Rv
# Format: cell-based, Mycobacterium tuberculosis
smiles,measurement,setting,value
"COc1c(N2CCNC(C)C2)c(F)cc2c(=O)c(C(=O)O)cn(C3CC3)c12 (centres unmarked) [GAT, gatifloxacin]",MIC 1: MIC of the substance tested alone,,0.12
same,MIC 2: MIC of the substance tested in combination,combination MFL + GAT,0.12
"COc1c(N2C[C@@H]3CCCN[C@@H]3C2)c(F)cc2c(=O)c(C(=O)O)cn(C3CC3)c12 [MOX, moxifloxacin]",MIC 1: MIC of the substance tested alone,,0.25
same,MIC 2: MIC of the substance tested in combination,combination MFL + MOX,0.15
"CC[C@@H](CO)NCCN[C@@H](CC)CO [ETB, ethambutol]",MIC 1: MIC of the substance tested alone,,1.25
same,MIC 2: MIC of the substance tested in combination,combination MFL + ETB,1.25
"C[C@H]1COc2c(N3CCN(C)CC3)c(F)cc3c(=O)c(C(=O)O)cn1c23 [LVX, levofloxacin]",MIC 1: MIC of the substance tested alone,,0.62
same,MIC 2: MIC of the substance tested in combination,combination MEF + LVX,0.62
"CC(=O)NC[C@H]1CN(c2ccc(N3CCOCC3)c(F)c2)C(=O)O1 [LYN, linezolid]",MIC 1: MIC of the substance tested alone,,0.62
same,MIC 2: MIC of the substance tested in combination,combination MFL + LYN,0.62
"OC(c1cc(C(F)(F)F)nc2c(C(F)(F)F)cccc12)C1CCCCN1 (centres unmarked) [Mefloquine, mefloquine]",MIC 2: MIC of the substance tested in combination,combination MEF + CPX,0.62
same,MIC 2: MIC of the substance tested in combination,combination MEF + LVX,0.62
same,MIC 2: MIC of the substance tested in combination,combination MFL + GAT,0.12
same,MIC 2: MIC of the substance tested in combination,combination MFL + INH,0.10
same,MIC 2: MIC of the substance tested in combination,combination MFL + LYN,0.62
same,MIC 2: MIC of the substance tested in combination,combination MFL + MOX,0.15
same,MIC 2: MIC of the substance tested in combination,combination MFL + OFX,0.62
same,MIC 2: MIC of the substance tested in combination,combination MFL + PYR,3.12
same,MIC 2: MIC of the substance tested in combination,combination MFL + SPR,0.12
"NC(=O)c1cnccn1 [PYR, pyrazinamide]",MIC 1: MIC of the substance tested alone,,100
same,MIC 2: MIC of the substance tested in combination,combination MFL + PYR,3.12
"O=C(O)c1cn(C2CC2)c2cc(N3CCNCC3)c(F)cc2c1=O [CPX, ciprofloxacin]",MIC 1: MIC of the substance tested alone,,0.62
same,MIC 2: MIC of the substance tested in combination,combination MEF + CPX,0.62
"CC1COc2c(N3CCN(C)CC3)c(F)cc3c(=O)c(C(=O)O)cn1c23 (centres unmarked) [OFX, ofloxacin]",MIC 1: MIC of the substance tested alone,,1.25
same,MIC 2: MIC of the substance tested in combination,combination MFL + OFX,0.62
"C[C@@H]1CN(c2c(F)c(N)c3c(=O)c(C(=O)O)cn(C4CC4)c3c2F)C[C@H](C)N1 [SPR, sparfloxacin]",MIC 1: MIC of the substance tested alone,,0.12
same,MIC 2: MIC of the substance tested in combination,combination MFL + SPR,0.12
"NNC(=O)c1ccncc1 [INH, isoniazid]",MIC 1: MIC of the substance tested alone,,0.20
same,MIC 2: MIC of the substance tested in combination,combination MFL + INH,0.10

# From patent US10688088B2 (priority 2015, dated 2020)
